Results on 4 compounds are retold here after patent publication US5538971A, “Benzoquinoxalines, pharmaceutical compositions containing them and their use in treating schizophrenia” (Sandoz Ltd., priority 1991, dated 1996).

The structures appear in SMILES notation. Read-outs that look alike come from different tables or passages of the source.

Data set [1] concerns rat. In words: inhibition of locomotor activity increase induced by a D-1 agonist. In kind it is in vivo. The conditions noted are these: for inhibition of locomotor activity increase (in words): rat, D-1 agonist 10 mg/kg p.o., for the invention's compounds doses of ca. 0.1 to 10 mg/kg p.o. or ca. 0.1 to 0.5 mg/kg s.c. How it is done: In this test, the substance to be tested is applied one hour before the D-1 agonist, and the locomotor activity is measured under red light using photoelectric cells.

For a further data set, the system named is mouse. In words: apomorphine induced rearing test. In kind it is in vivo. The method, then:
Thus when administered to the mouse at doses of ca. 0.05 to ca. 1 mg/kg p.o., there is observed a significant inhibition of the rearing induced by subcutaneous administration of 0.5 mg/kg of apomorphine. In this test, each mouse is contained in a glass cylinder (20 cm high, 8 cm diameter) on absorbent cardboard and rearing is quantified by accumulating the time spent with both forepaws off the ground during three 1-minute periods at 10 minute intervals after apomorphine administration. […] This test detects both classical and atypical anti-psychotics and thus has predictive value for efficacy in schizophrenia.

Data set [2] relates to rat. Kind of data set: cataleptogenic activity (catalepsy). In kind it is in vivo. The conditions noted are these: rat, 1, 3.2 and 10 mg/kg p.o., observation period of 8 hours. The method, then: Furthermore at doses of ca. 1 to ca. 10 mg/kg p.o., the compounds according to the invention effect no catalepsy of the rat. Cataleptogenic activity is assessed as described by G. Stille et al. in Arzneimittel Forschung 15, 841-843 (1965). The criterion for catalepsy is fulfilled when posture retention time is longer than 10 seconds. In view of the lack of cataleptogenic activity, the risk that the compounds according to the invention might cause extra-pyramidal side effects is improbable.

Data set [3] concerns the target T1, dopamine receptors of the D-1 type (Bos taurus, UniProt Q95136).
T1 construct: homogenates of bovine retina; from tissue; host or cells: bovine retina homogenate
Kind of data set: inhibition of the dopamine-induced stimulation of adenylate cyclase in homogenates of bovine retina. In kind it is biochemical. The conditions noted are these: calculated from IC50 according to Cheng and Prusoff, read-out: pKi, adenylate cyclase functional test (converted). From the text:
At concentrations of ca. 1 nmol/l to ca. […] the compounds according to the invention effect strong inhibition of the dopamine-induced stimulation of adenylate cyclase in homogenates of bovine retina [for the method see R. Markstein, Journal Neural. Transmission 51, 39-59 (1981)].
This activity also indicates the use of the compounds according to the invention in schizophrenia.

Setting [4] is: Mus musculus, po, 0.5 h, read-out: ED50, apomorphine-induced rearing.
The mark [5] stands for this setting: Mus musculus, sc, 0.5 h, read-out: ED50, apomorphine-induced rearing.

T1 sequence (Q95136 whole entry): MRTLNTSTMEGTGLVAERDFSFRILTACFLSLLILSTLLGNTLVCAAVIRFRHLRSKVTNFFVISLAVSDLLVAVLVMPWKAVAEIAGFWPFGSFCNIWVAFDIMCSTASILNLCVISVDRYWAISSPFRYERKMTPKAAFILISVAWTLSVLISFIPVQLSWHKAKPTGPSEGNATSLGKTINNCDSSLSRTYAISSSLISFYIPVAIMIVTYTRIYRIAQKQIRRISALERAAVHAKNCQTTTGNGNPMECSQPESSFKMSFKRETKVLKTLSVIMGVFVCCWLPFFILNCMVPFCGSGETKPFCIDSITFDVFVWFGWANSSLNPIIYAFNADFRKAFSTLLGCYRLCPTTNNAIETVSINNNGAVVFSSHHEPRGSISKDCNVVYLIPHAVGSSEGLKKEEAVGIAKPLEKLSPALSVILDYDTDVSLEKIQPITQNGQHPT

For `CN1CC[C@@H](c2ccccc2)[C@@H]2c3cccc4[nH]c(Cl)c(c34)C[C@H]21` (stereo in doubt) [phenylergoline, (+)-(5R)[5β, 9α, 10α]-2-chloro-6-methyl-9-phenylergoline, reference compound], the inhibition at 2 mg/kg in the data set on rat [1] (Rattus norvegicus, Rat2, po, read-out: inhibition of locomotor activity increase) was 45%.
On to `CN1CCN(C2=Nc3cc(Cl)ccc3Nc3ccccc32)CC1` [Clozapine, reference compound], for which, in the data set with rat [1], the “inhibition of locomotor activity increase (in words)” value is “active”. Moreover, the ED50 in the data set on mouse (po, 0.5 h, mouse, p.o., after 30 minutes, apomorphine 0.5 mg/kg s.c., read-out: ED50, apomorphine-induced rearing) was found to be 4.3 mg/kg; in the data set on mouse (sc, 0.5 h, mouse, s.c., after 30 minutes, apomorphine 0.5 mg/kg s.c., read-out: ED50, apomorphine-induced rearing) it was 0.66 mg/kg.
Regarding `Cc1cc(Cl)ccc1N1CCN(C)[C@@H]2Cc3cccc(O)c3C[C@H]21` [Example 2, (-)-[4aR,10aR]-l,2,3,4,4a,5,10,10a-octahydro-4-(4'-chloro-2'-methyl-phenyl)-1-methyl-benzo[g]quinoxaline-6-ol], the inhibition at 1 mg/kg with rat [1] (Rattus norvegicus, po, read-out: inhibition of locomotor activity increase) amounted to 76%. Also, in the data set on rat [1], the “inhibition of locomotor activity increase (in words)” value is given as “inhibits the locomotor activity increase more potently”. Besides, the ED50 in the data set on mouse (setting [4]) was 0.38 mg/kg; in the data set on mouse (Mus musculus, po, 1 h, read-out: E50, apomorphine-induced rearing after subchronic treatment), 0.28 mg/kg; in the data set on mouse (Mus musculus, po, 1 h, read-out: ED50, apomorphine-induced rearing), 0.14 mg/kg; in the data set on mouse (setting [5]), 0.033 mg/kg; with mouse (Mus musculus, sc, 1 h, read-out: ED50, apomorphine-induced rearing), 0.04 mg/kg. Besides, in the data set with rat [2], the catalepsy entry is listed as “fails to produce catalepsy”. For the same compound, in data set [3], the Ki is 50.1 nM.
As for `O=C(CCCN1CCC(O)(c2ccc(Cl)cc2)CC1)c1ccc(F)cc1` [Haloperidol, reference compound], the values for the ED50 with mouse (setting [4]) and with mouse (setting [5]) were 0.03 mg/kg and 0.008 mg/kg, respectively.
